Source: patent US20210300943A1, “OGA INHIBITOR COMPOUNDS” (Janssen Pharmaceutica NV, priority 2018, published 2021)

Columns and labels:
[1] = molecular target: T1, recombinant human Meningioma Expressed Antigen 5 (MGEA5), also referred to as O-GlcNAcase (OGA) (Homo sapiens, UniProt O60502); assay: OGA biochemical assay (inhibition of FM-GlcNAc hydrolysis, fluorescence); conditions: for Emax / Enzymatic Emax (%): maximal effect; for Emax: read-out: Enzymatic Emax (%); for IC50: read-out: Enzymatic hOGA, pIC50 (converted)
T1 construct: Full length OGA enzyme was purchased at OnGene (cat #TP322411); purchased OnGene (so in the source)
T1 sequence (O60502 1-916): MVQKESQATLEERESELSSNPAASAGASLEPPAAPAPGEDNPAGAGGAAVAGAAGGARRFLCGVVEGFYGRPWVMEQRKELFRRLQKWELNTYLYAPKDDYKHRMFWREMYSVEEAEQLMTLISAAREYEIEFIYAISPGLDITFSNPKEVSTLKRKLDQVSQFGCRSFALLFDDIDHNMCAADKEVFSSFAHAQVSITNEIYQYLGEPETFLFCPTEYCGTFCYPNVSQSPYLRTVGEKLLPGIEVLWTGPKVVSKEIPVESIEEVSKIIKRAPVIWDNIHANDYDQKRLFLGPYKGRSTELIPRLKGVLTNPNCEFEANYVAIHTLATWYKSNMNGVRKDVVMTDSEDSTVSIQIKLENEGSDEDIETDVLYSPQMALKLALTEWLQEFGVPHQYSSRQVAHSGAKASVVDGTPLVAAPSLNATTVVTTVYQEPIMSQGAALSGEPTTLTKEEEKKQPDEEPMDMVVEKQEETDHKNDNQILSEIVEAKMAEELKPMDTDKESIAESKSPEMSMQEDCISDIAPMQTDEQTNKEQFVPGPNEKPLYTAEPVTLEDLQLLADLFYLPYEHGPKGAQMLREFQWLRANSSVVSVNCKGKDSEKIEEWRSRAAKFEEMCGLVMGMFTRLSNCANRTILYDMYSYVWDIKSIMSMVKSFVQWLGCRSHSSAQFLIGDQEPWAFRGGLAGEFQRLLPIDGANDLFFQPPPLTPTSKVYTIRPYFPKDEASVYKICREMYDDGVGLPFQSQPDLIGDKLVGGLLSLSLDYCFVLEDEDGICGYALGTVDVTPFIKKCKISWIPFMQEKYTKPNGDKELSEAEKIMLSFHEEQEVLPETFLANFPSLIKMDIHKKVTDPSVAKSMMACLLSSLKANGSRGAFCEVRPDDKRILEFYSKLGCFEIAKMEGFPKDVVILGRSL
How it was run: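 Full-length recombinant OGA (2 nM) pre-incubated with compound 60 min at room temperature, then FM-GlcNAc (100 µM final) added in citrate/phosphate buffer pH 7.2 with 0.005% Tween-20. After 6 h at room temperature, stopped with carbonate pH 11.0; fluorescein read at 485/538 nm; IC50 and Hill coefficient from curve fit.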

[2] = molecular target: T2, OGA (Homo sapiens, UniProt O60502); assay: OGA cellular assay (ICC detection of O-GlcNAcylated proteins in HEK293 cells inducible for P301L mutant human Tau); format: cell-based; conditions: for Emax: HEK293, HEK293 cells inducible for P301L mutant human Tau; for Emax / Cellular Emax (%): maximal effect, Thiamet G 200 uM as maximum; for EC50: read-out: Cellular hOGA, pEC50 (converted)
T2 construct: endogenous in cells; host or cells: HEK293 cells inducible for P301L mutant human Tau (2N4R)
T2 sequence (O60502 1-916): T1 sequence (O60502 1-916)
Description: HEK293 cells inducible for P301L mutant human Tau (isoform 2N4R) were established at Janssen. Thiamet-G was used for both plate validation (high control) and as reference compound (reference EC50 assay validation). OGA inhibition is evaluated through the immunocytochemical (ICC) detection of O-GlcNAcylated proteins by the use of a monoclonal antibody (CTD110.6; Cell Signaling, #9875) detecting 0-GlcNAcylated residues as previously described (Dorfmueller et al. 2010 Chemistry & biology, 17:1250). Inhibition of OGA will result in an increase of O-GlcNAcylated protein levels resulting in an increased signal in the experiment. Cell nuclei are stained with Hoechst to give a cell culture quality control and a rough estimate of immediate compounds toxicity, if any. ICC pictures are imaged with a Perkin Elmer Opera Phenix plate microscope and quantified with the provided software Perkin Elmer Harmony 4.1.
Cells were propagated in DMEM high Glucose (Sigma, #D5796) following standard procedures. 2 days before the cell assay cells are split, counted and seeded in Poly-D-Lysine (PDL) coated 96-wells (Greiner, #655946) plate at a cell density of 12,000 cells per cm^2 (4,000 cells per well) in 100 μl of Assay Medium (Low Glucose medium is used to reduce basal levels of GlcNAcylation) (Park et al. 2014 The Journal of biological chemistry 289:13519). At the day of compound test medium from assay plates was removed and replenished with 90 μl of fresh Assay Medium. 10 μl of compounds at a 10 fold final concentration were added to the wells. Plates were centrifuged shortly before incubation in the cell incubator for 6 hours. DMSO concentration was set to 0.2%. Medium is discarded by applying vacuum. For staining of cells medium was removed and cells washed once with 100 μl D-PBS (Sigma, #D8537). From next step onwards unless other stated assay volume was always 50 μl and incubation was performed without agitation and at room temperature. Cells were fixed in 50 μl of a 4% paraformaldehyde (PFA, Alpha aesar, #043368) PBS solution for 15 minutes at room temperature. […] Before analysis samples were washed 2 times manually for 5 minutes in ICC base buffer.
Imaging is performed using Perkin Elmer Phenix Opera using a water 20× objective and recording 9 fields per well. Intensity readout at 488 nm is used as a measure of O-GlcNAcylation level of total proteins in wells. To assess potential toxicity of compounds nuclei were counted using the Hoechst staining. IC50-values are calculated using parametric non-linear regression model fitting. As a maximum inhibition Thiamet G at a 200 uM concentration is present on each plate. In addition, a concentration response of Thiamet G is calculated on each plate.

[3] = HEK293 cells inducible for P301L mutant human Tau, 6 hours incubation
[4] = HEK293 cells inducible for P301L mutant human Tau

COc1cc(NCC2CCCN(C(C)c3ccc4c(c3)OCC4)C2)cc(C)n1 (centres unmarked) [Product 30]
Emax [1]: 104% | IC50 [1]: 7.94 nM | Emax [2]: 81% | EC50 [2, 3]: 6.31 nM

Cc1cc(C2CCCN(C(C)c3ccc4c(n3)OCCO4)C2)c(F)c(C)n1 (centres unmarked) [Product 185]
Emax [1]: 100% | IC50 [1]: 15.8 nM | Emax [2]: 65% | EC50 [2, 3]: 50.1 nM

Cc1cc(C[C@H]2CCCN(C(C)c3cc4c(cc3F)OCCO4)C2)cc(C)n1 (single isomer, unassigned) [Product 42]
Emax [1]: 99% | IC50 [1]: 2 nM | Emax [2]: 86% | EC50 [2, 3]: 6.31 nM

Cc1cc(OC[C@H]2CCCN(C(C)c3cnc4c(c3)OCCN4)C2)cc(C)n1 (some centres unmarked) [Product 147]
Enzymatic hOGA; pIC50 [1]: 8.2 | Enzymatic Emax (%) [1]: 100% | Cellular hOGA; pEC50 [2, 3]: 8.0 | Cellular Emax (%) [2, 4]: 80%

Cc1cc(C2CCCN(C(C)c3nc4c(cc3F)OCCO4)C2)c(F)c(C)n1 (centres unmarked) [Product 189]
Emax [1]: 100% | IC50 [1]: 7.94 nM | Emax [2]: 88% | EC50 [2, 3]: 15.8 nM

Cc1cc(OC[C@H]2CCCN(C(C)c3cnc4c(c3)OCCN4)C2)cc(C)n1 (some centres unmarked) [Product 146]
Emax [1]: 99% | IC50 [1]: 6.31 nM | Emax [2]: 79% | EC50 [2, 3]: 10 nM

Cc1cc(C[C@H]2CCCN(Cc3ccc4c(c3)OCCN4C)C2)cc(C)n1 [Product 48]
Emax [1]: 93% | IC50 [1]: 501 nM | Emax [2]: 5% | EC50 [2, 3]: > 1000 nM

Cc1cc([C@H]2CCCN(C(C)c3nc4c(cc3F)CCO4)C2)cc(C)n1 (single isomer, unassigned) [Product 171]
Emax [1]: 100% | IC50 [1]: 2.51 nM | Emax [2]: 78% | EC50 [2, 3]: 2.51 nM

Cc1cc([C@H]2CCCN([C@@H](C)c3ccc4c(c3)OCC4)C2)cc(C)n1 (racemic) [Product 4]
Emax [1]: 103% | IC50 [1]: 5.01 nM | Emax [2]: 70% | EC50 [2, 3]: 20 nM

Cc1cc(NCC2CCCN(C(C)c3ccc4c(c3)OCC4)C2)cc(C)n1 (centres unmarked) [Product 22]
Emax [1]: 104% | IC50 [1]: 7.94 nM | Emax [2]: 82% | EC50 [2, 3]: 7.94 nM

CC(c1ccc2c(n1)OCCO2)N1CCC[C@H](NCc2ccc(F)cc2)C1 (some centres unmarked) [Product 197]
Emax [1]: 98% | IC50 [1]: 398 nM | Emax [2]: 66% | EC50 [2, 3]: 631 nM

COC1CCN(C(C)c2ccc3c(n2)OCCO3)CC1Cc1cc(C)nc(C)c1 (centres unmarked) [Product 172]
Emax [1]: 99% | IC50 [1]: 39.8 nM | Emax [2]: 78% | EC50 [2, 3]: 126 nM

Cc1cc(OC[C@H]2CCCN(C(C)c3cc4c(cc3F)NCCO4)C2)cc(C)n1 (some centres unmarked) [Product 191]
Emax [1]: 95% | IC50 [1]: 5.01 nM | Emax [2]: 81% | EC50 [2, 3]: 15.8 nM

Cc1cc(CO[C@H]2CCCN(C(C)c3nc4c(cc3F)OCCO4)C2)cc(C)n1 (single isomer, unassigned) [Product 169]
Emax [1]: 85% | IC50 [1]: 2000 nM | EC50 [2, 3]: > 1000 nM | Cellular Emax (%) [2, 4]: −5%

COc1cc(OC[C@H]2CCCN(C(C)c3ccc4c(n3)OCCO4)C2)cc(C)n1 (single isomer, unassigned) [Product 184]
Emax [1]: 87% | IC50 [1]: 2000 nM | Emax [2]: -17% | EC50 [2, 3]: > 1000 nM

Cc1cc(C[C@H]2CCCN(C(C)c3cnc4c(c3)OCCO4)C2)cc(C)n1 (some centres unmarked) [Product 130]
Emax [1]: 101% | IC50 [1]: 7.94 nM | Emax [2]: 83% | EC50 [2, 3]: 158 nM

Cc1cc([C@H]2CCCN(C(C)c3nc4c(cc3F)OCCO4)C2)cc(C)n1 (single isomer, unassigned) [Product 164]
Emax [1]: 100% | IC50 [1]: 3.16 nM | Emax [2]: 86% | EC50 [2, 3]: 6.31 nM

Cc1cc(C2CCCN(C(C)c3cc4c(cc3F)OCCO4)C2)cc(C(F)(F)F)n1 (centres unmarked) [Product 9]
Emax [1]: 102% | IC50 [1]: 10 nM | Emax [2]: 92% | EC50 [2, 3]: 50.1 nM

Cc1cc(OC[C@H]2CCCN(C(C)c3nc4c(cc3F)OCCO4)C2)cc(C)n1 (some centres unmarked) [Product 152]
Emax [1]: 102% | IC50 [1]: 3.98 nM | Emax [2]: 94% | EC50 [2, 3]: 3.98 nM

Cc1cc(C2CCCN(C(C)c3cc4c(cc3F)NCCO4)C2)cc(C)n1 (centres unmarked) [Product 190]
Emax [1]: 101% | IC50 [1]: 10 nM | Emax [2]: 82% | EC50 [2, 3]: 50.1 nM

Cc1cc(CO[C@H]2CCCN([C@H](C)c3ccc4c(n3)OCCO4)C2)cc(C)n1 (mixture of isomers) [Product 111]
Emax [1]: 98% | IC50 [1]: 12.6 nM | Emax [2]: 29% | EC50 [2, 3]: 316 nM

Cc1cc(C[C@H]2CCCN(C(C)c3cnc4c(c3)OCCN4)C2)cc(C)n1 (single isomer, unassigned) [Product 52]
Enzymatic Emax (%) [1]: 104% | IC50 [1]: 1.26 nM | Emax [2]: 92% | EC50 [2, 3]: 6.31 nM

COc1cc(C2CCCN(C(C)c3ccc4c(n3)OCCO4)C2)cc(C(F)(F)F)n1 (centres unmarked) [Product 10]
Emax [1]: 100% | IC50 [1]: 25.1 nM | Emax [2]: 52% | EC50 [2, 3]: 977 nM

Cc1cc(NCC2CCCN(C(C)c3ccc4c(c3)OCC4)C2)cc(C(F)(F)F)n1 (centres unmarked) [Product 36]
Emax [1]: 101% | Emax [2]: 88% | EC50 [2, 3]: 126 nM

Cc1cc([C@H]2CCCN([C@H](C)c3ccc4c(n3)OCCO4)C2)cc(C)n1 (single isomer, unassigned) [Product 158]
Emax [1]: 102% | IC50 [1]: 7.94 nM | Emax [2]: 89% | EC50 [2, 3]: 39.8 nM

Cc1cc(NC[C@H]2CCCN(C(C)c3nc4c(cc3F)OCCO4)C2)cc(C)n1 (some centres unmarked) [Product 181]
Emax [1]: 101% | IC50 [1]: 3.98 nM | Emax [2]: 92% | EC50 [2, 3]: 1.58 nM

Cc1cc(OC2CCCN(C(C)c3cnc4c(c3)OCCN4)C2)cc(C)n1 (centres unmarked) [Product 14]
Emax [1]: 101% | IC50 [1]: 5.01 nM | Emax [2]: 60% | EC50 [2, 3]: 631 nM

Cc1cc(NC[C@H]2CCCN(C(C)c3ccc4c(n3)OCCO4)C2)nc(C)n1 (some centres unmarked) [Product 157]
Emax [1]: 101% | IC50 [1]: 5.01 nM | Emax [2]: 83% | EC50 [2, 3]: 15.8 nM

Cc1cc(OC[C@@H]2CCCN(C(C)c3cnc4c(c3)OCCN4)C2)cc(C)n1 (some centres unmarked) [Product 145]
Emax [1]: 99% | IC50 [1]: 251 nM | Emax [2]: 35% | EC50 [2, 3]: > 1000 nM

COc1cc(CN[C@H]2CCCN(C(C)c3ccc4c(n3)OCCO4)C2)cc(C)n1 (some centres unmarked) [Product 198]
Emax [1]: 94% | IC50 [1]: 39.8 nM | Emax [2]: 82% | EC50 [2, 3]: 398 nM
